The text below walks through data of PMC9181938, “Fluorinated Analogues of Lepidilines A and C: Synthesis and Screening of Their Anticancer and Antiviral Activity” (Molecules, 2022).

pIC50: −log10 of the molar value. Structures can show the parent of a compound that is named as a salt. Where two headings read alike, the source gives them in different places.

Data set [1] has as its system Human herpesvirus 5 (HCMV). Put plainly: Antiviral activity assay (0.1–1000 µM), IC50, plaque reduction. The class given is cell-based. Particulars: Human betaherpesvirus 5, 20 PFU/well. As for the experimental part:
(§1) Antiviral properties of compounds 1e–1g, 1e[PF6], 8a–8d, and 9a were assessed against five viruses: Human herpesvirus 1 (HSV-1, VR-539), Human parainfluenza virus type 3 (HPIV-3, VR-93), Human adenovirus 5 (AdV5, VR-5), Human herpesvirus 5 (HCMV, VR-977), and Encephalomyocarditis virus (EMCV, VR-1479). Viruses were purchased from the American Type Culture Collection (ATCC, Manassas, VA, USA).
(§2) All tested compounds were dissolved in DMSO (dimethyl sulfoxide, Sigma-Aldrich, Darmstadt, Germany) and then suspended in Minimum Essential Medium (MEM; Sigma-Aldrich, Darmstadt, Germany) supplemented with 2% heat-inactivated fetal bovine serum (FBS; Sigma-Aldrich, Darmstadt, Germany), 2 mM L-glutamine (Sigma-Aldrich, Darmstadt, Germany), and 100 units/mL penicillin G with […] streptomycin (Sigma-Aldrich, Darmstadt, Germany).
(§3) Investigated cells were propagated in Minimum Essential Medium (MEM; Sigma-Aldrich, Darmstadt, Germany) supplemented with 10% heat-inactivated fetal bovine serum (FBS; Sigma-Aldrich, Darmstadt, Germany) and 100 units/mL penicillin G with […] streptomycin (Sigma-Aldrich, Darmstadt, Germany). After reaching 80–90% confluency, cells were harvested with trypsin (Life Technologies, Warsaw, Poland) and seeded into 96-well microplates at 2 × 10^5 cells/mL after overnight incubation of cells at 37 °C in a humidified atmosphere containing 5% CO2.
(§4) The culture medium was removed from confluent cells grown in 96-well microplates, and the cells were inoculated with virus solutions in MEM supplemented with 2% FBS and antibiotics (HSV-1 MOI 0.005, 1000 virions/mL; HPIV-3 MOI 0.01, 2000 virions/mL; AdV5 MOI 0.005, 1000 virions/mL; EMCV 0.005, 1000 virions/mL; HCMV 20 PFU/well (plaque-forming units per well). After a 1-h (HSV-1, HPIV-3, AdV5, and EMCV) or 2-h adsorption period (HCMV), residual viral particles were removed, and infected cells were further incubated with MEM supplemented with 2% FBS containing compound concentrations in the range from 0.1 to 1000 µM [38]. All experiments were carried out in triplicate. The cell monolayers were incubated with the investigated compounds at 37 °C in a humidified atmosphere containing 5% CO2 until a cytopathic effect (CPE) was visible. Viral infection was evaluated by the MTT assay (as described previously) or plaque reduction assay. HCMV plaques were counted under an inverted microscope, Olympus IX73 (Olympus, Tokyo, Japan). Antiviral activity was expressed as the concentration required to reduce the number of viral plaques to 50% of the control (virus-infected but untreated).

Data set [2] deals with Human adenovirus 5 (AdV5). Put plainly: Antiviral activity assay (0.1–1000 µM), IC50. It is filed as cell-based. To be noted: Human mastadenovirus C; AdV5, MOI 0.005; read-out: IC50 AdV5. As for the experimental part:
as §1, §2, §3, §4

Data set [3] relates to Human herpesvirus 1 (HSV-1). Put plainly: Antiviral activity assay (0.1–1000 µM), IC50. The class given is cell-based. Particulars: Human alphaherpesvirus 1; HSV-1, MOI 0.005. How it is done:
as §1, §2, §3, §4

For data set [4], the system named is Encephalomyocarditis virus (EMCV). Put plainly: Antiviral activity assay (0.1–1000 µM), IC50. It is filed as cell-based. To be noted: Cardiovirus A, MOI 0.005, read-out: IC50 EMCV. As for the experimental part: as §1, §2, §3, §4
Data set [5] has as its system Human parainfluenza virus type 3 (HPIV-3). Put plainly: Antiviral activity assay (0.1–1000 µM), IC50. It is filed as cell-based. To be noted: Human respirovirus 3, HPIV-3, MOI 0.01; read-out: IC50 HPIV-3. How it is done: as §1, §2, §3, §4
A short description of data set [6]: Cytotoxicity screening at 10 µM (MTT). The class given is cell-based, Mus musculus. Particulars: Mus musculus, NCTC clone 929 cells, read-out: Cell line (viability %) NCTC clone 929.
A short description of data set [7]: Cytotoxicity screening at 10 µM (MTT). The class given is cell-based, Cercopithecus aethiops. To be noted: Cercopithecus aethiops, Vero cells, read-out: Cell line (viability %) Vero.
Data set [8] concerns Human herpesvirus 5 (HCMV). Put plainly: Antiviral screening at 10 µM, plaque reduction. The class given is cell-based. Particulars: Human betaherpesvirus 5, antiviral screening, HCMV-infected cells, read-out: Cell line (viability %) HCMV. As for the experimental part: (§5) Antiviral properties of compounds 1a, 1c, 1a[PF6], 1c[PF6], 9b[PF6], 9c[PF6], 10a–10d, 2a, and 2b were assessed against five viruses: Human herpesvirus 1 (HSV-1, VR-539), Human parainfluenza virus type 3 (HPIV-3, VR-93), Human adenovirus 5 (AdV5, VR-5), Human herpesvirus 5 (HCMV, VR-977), and Encephalomyocarditis virus (EMCV, VR-1479). Viruses were purchased from the American Type Culture Collection (ATCC, Manassas, VA, USA).
as §2
(§6) Vero, LLC-MK2, NCTC clone 929, MRC-5, and HeLa cells were propagated in Minimum Essential Medium (MEM; Sigma-Aldrich, Darmstadt, Germany) supplemented with 10% heat-inactivated fetal bovine serum (FBS; Sigma-Aldrich, Darmstadt, Germany) and 100 units/mL penicillin G with […] streptomycin (Sigma-Aldrich, Darmstadt, Germany). Upon reaching 80–90% confluency, cells were harvested with 0.25% trypsin in 1 mM EDTA (Life Technologies, Warsaw, Poland) and seeded onto 96-well microplates at 2 × 10^5 cells/mL. After overnight incubation of cells at 37 °C in a humidified atmosphere containing 5% CO2, the culture medium was removed, and cells were inoculated with the respective virus solution in MEM supplemented with 2% FBS and antibiotics (HSV-1 MOI 0.005, 1000 virions/mL; HPIV-3 MOI 0.01, 2000 virions/mL; AdV5 MOI 0.005, 1000 virions/mL, EMCV MOI 0.005, 1000 virions/mL, HCMV 20 PFU (plaque forming units) per well). After a 1-h (HSV-1, HPIV-3, AdV5, and EMCV) or 2-h adsorption period (HCMV), the residual virus was removed, and the infected cells were further incubated with a 100 μL freshly prepared solution of tested compounds diluted with a maintenance medium supplemented with 2% FBS to obtain compound concentrations of 10 µM. The final concentration of DMSO in the medium was 0.1%. All experiments were carried out in triplicate. The cells monolayers were incubated with the compounds at 37 °C in a humidified atmosphere containing 5% CO2 until the typical cytopathic effect (CPE) was visible. Viral infection was evaluated by the MTT assay or plaque reduction assay (HCMV). After incubation with drugs, the cells were treated with 3-(4,5-dimethylthiazol-2-yl)-2,5-diphenyltetrazolium bromide dye solution (MTT, Sigma-Aldrich, Darmstadt, Germany) (25 μL, 5 mg/mL) for 2 h and lysed with solvent solution (100 μL) containing: DMF (Sigma-Aldrich, Darmstadt, Germany) (45 mL), SDS (Sigma-Aldrich, Darmstadt, Germany) (13.5 g), and distilled water (55 mL). After overnight incubation at 37 °C, the optical density at 550 nm and a reference wavelength of 670 nm were measured on a microplate spectrophotometer, Varioskan Lux (Thermo Fisher Scientific, Waltham, MA, USA). The number of HCMV plaques was counted under an inverted microscope Olympus IX73 (Olympus, Tokyo, Japan).

The test system of data set [9] is Human adenovirus 5 (AdV5). Put plainly: Antiviral screening at 10 µM. Particulars: Human mastadenovirus C, AdV5-infected cells, read-out: Cell line (viability %) AdV5. It is filed as cell-based. As for the experimental part: as §5, §2, §6
Data set [10] concerns Human herpesvirus 1 (HSV-1). Put plainly: Antiviral screening at 10 µM. It is filed as cell-based. Particulars: Human alphaherpesvirus 1, antiviral screening, HSV-1-infected cells, read-out: Cell line (viability %) HSV-1. How it is done: as §5, §2, §6
The test system of data set [11] is Encephalomyocarditis virus (EMCV). Put plainly: Antiviral screening at 10 µM. The class given is cell-based. To be noted: Cardiovirus A, EMCV-infected cells, read-out: Cell line (viability %) EMCV. How it is done: as §5, §2, §6
The test system of data set [12] is Human parainfluenza virus type 3 (HPIV-3). Put plainly: Antiviral screening at 10 µM. Particulars: Human respirovirus 3, antiviral screening, HPIV-3-infected cells, read-out: Cell line (viability %) HPIV-3. The class given is cell-based. As for the experimental part: as §5, §2, §6
Data set [13] in a line: Cytotoxicity screening at 10 µM (MTT). The class given is cell-based, Human. To be noted: human, MRC-5 cells, read-out: Cell line (viability %) MRC-5.
Data set [14] in a line: Cytotoxicity screening at 10 µM (MTT). It is filed as cell-based, Human. Particulars: human, HeLa cells, read-out: Cell line (viability %) HeLa.
Data set [15] in a line: Cytotoxicity screening at 10 µM (MTT). It is filed as cell-based, Macaca mulatta. Particulars: Macaca mulatta, LLC-MK2 cells, read-out: Cell line (viability %) LLC-MK2.

What is called melting point is the temperature of the solid-liquid transition. For `FC(F)(F)c1cccc(Cn2c[n+](OCc3ccccc3)c(-c3ccccc3)c2-c2ccccc2)c1.[Br-]`, the melting point is 107 to 110 °C.
`COc1cccc(CO[n+]2cn(Cc3cccc(C(F)(F)F)c3)c(-c3ccccc3)c2-c2ccccc2)c1.[Br-]` showed a melting point of 132 to 134 °C.
Turning to `Cc1cc(C)cc(CO[n+]2cn(Cc3cccc(C(F)(F)F)c3)c(-c3ccccc3)c2-c2ccccc2)c1.[Br-]`, the melting point was in the range of 156 to 158 °C.
Molecule `Cc1c(C)[n+](Cc2ccccc2)cn1Cc1cccc(F)c1` (as salt: phosphate) [1e[PF6]] [1-Benzyl-3-(3-fluorobenzyl)-4,5-dimethylimidazolium hexafluorophosphate] came in with a melting point of 110 to 112 °C.
A word on the pIC50: it is −log10 of the IC50, conventionally taken in molar units. Turning to `Cc1c(C)[n+](Cc2ccccc2)cn1Cc1cccc(F)c1` [1e[PF6], 1-Benzyl-3-(3-fluorobenzyl)-4,5-dimethylimidazolium hexafluorophosphate], the negative-log IC50 (pIC50) in data set [1] is below 3.82; in data set [2], below 7.10; in data set [3], below 4.25; in [4] it was below 3.83; in data set [5] it was below 3.82.
One may read the viability as the share of living cells, or the viability signal relative to a control. Take `c1ccc(Cn2c[n+](Cc3ccccc3)c(-c3ccccc3)c2-c2ccccc2)cc1` [9b[PF6]]: the viability at 48 h, 10 µM in data set [6] was 4.1%; in data set [7], 6.7%; in data set [13], 12.8%; in data set [14], 6.8%; in data set [15], 8%. Moreover, the viability at 10 µM was 6.3% in data set [8]; 13.9% in data set [9]; 11.7% in [10]; 9.3% in [11]; 12% in data set [12].
Regarding `COc1cccc(Cn2c[n+](Cc3ccccc3)c(-c3ccccc3)c2-c2ccccc2)c1` [9c[PF6]], the viability at 48 h, 10 µM in data set [6] was 6.5%; in data set [7], 6.6%; in data set [13], 12.6%; in [14], 7.1%; in data set [15], 7.6%. In addition, the viability at 10 µM in [8] was 1.9%; in [9], 14.4%; in data set [10], 13.3%; in data set [11] it was 9.4%; in data set [12] it was 12.8%.
Turning to `c1c[n+](C23CC4CC(CC(C4)C2)C3)cn1C12CC3CC(CC(C3)C1)C2` [Compound 2a, 1,3-diadamantyl imidazolium bromide, reference compound], the viability at 48 h, 10 µM came to 8.9% in data set [6]; 7.9% in data set [7]; 73.7% in data set [13]; 23% in [14]; 7.8% in data set [15]. The viability at 10 µM in data set [8] is 9.7%; in data set [9], 50.2%; in data set [10] it was 13.9%; in data set [11] it was 7.1%; in data set [12], 8.3%.
For the molecule `c1c[n+](OC23CC4CC(CC(C4)C2)C3)cn1OC12CC3CC(CC(C3)C1)C2` [Compound 2b], the viability at 48 h, 10 µM came out at 6.6% in data set [6]; 15.2% in [7]; 12.7% in data set [13]; 7.5% in data set [14]; 7.8% in data set [15]. Also, the viability at 10 µM in data set [8] worked out at 2.8%; in data set [9] it was 17.1%; in [10], 14.1%; in data set [11], 9.6%; in data set [12], 8.7%.
Take `COc1cccc(Cn2c(C)c(C)n(Cc3ccccc3)c2=S)c1` [Compound 10b]: the viability at 48 h, 10 µM worked out at 59% in data set [6]; 29.1% in data set [7]; 100% in data set [13]; 13.3% in [14]; 9.1% in data set [15]. In addition, the viability at 10 µM stood at 1.9% in data set [8]; 39.5% in data set [9]; 16.5% in [10]; 8.1% in [11]; 7.9% in [12].
Regarding `S=c1n(Cc2ccccc2)c(-c2ccccc2)c(-c2ccccc2)n1Cc1ccccc1` [Compound 10c], the viability at 48 h, 10 µM in data set [6] stood at 35.5%; in data set [7], 11.4%; in data set [13] it was 73.8%; in data set [14], 7.8%; in data set [15] it was 15.8%. For the same molecule, the viability at 10 µM worked out at 7.1% in data set [8]; 16% in [9]; 14.7% in [10]; 8.5% in [11]; 10.9% in data set [12].
